Measurements: patent US7220775B2, “Compound useful for the treatment of neuropathic pain” (H. Lundbeck A/S, priority 2002, dated 2007)
Where two headings read alike, the source gives them in different places.

Columns and labels:
human GAL2 receptor = biological target: T1, human GAL2 receptor (Homo sapiens, UniProt O43603); assay: Radioligand binding at cloned human GAL2 receptor; details: read-out: Ki (nM) GalR2
T1 construct: expressed in transfected cells
T1 sequence (O43603 1-387): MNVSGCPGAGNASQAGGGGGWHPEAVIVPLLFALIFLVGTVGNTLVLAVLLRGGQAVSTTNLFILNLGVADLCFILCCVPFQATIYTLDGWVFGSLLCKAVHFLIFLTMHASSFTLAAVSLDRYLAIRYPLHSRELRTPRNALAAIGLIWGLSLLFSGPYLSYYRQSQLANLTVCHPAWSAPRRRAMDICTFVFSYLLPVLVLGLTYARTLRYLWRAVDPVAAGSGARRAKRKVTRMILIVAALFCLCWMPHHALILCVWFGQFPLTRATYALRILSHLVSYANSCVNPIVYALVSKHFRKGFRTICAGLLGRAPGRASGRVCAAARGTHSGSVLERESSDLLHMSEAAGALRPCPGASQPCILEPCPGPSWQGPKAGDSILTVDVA
Method: (§1) The present invention provides for a method of determining the binding affinity of a GAL3 antagonist, wherein the GAL3 antagonist is dissolved in a “suitable solvent”. A “suitable solvent” means one which permits the measurement of binding affinity of the GAL3 antagonist to the human GAL3 receptor at concentrations less than 1 μM, preferably less than 100 nM. Examples of solvents include, but are not limited to, DMSO, ethanol, N,N-dimethylacetamide, or water. For indolones, the preferred solvent is 3% DMSO (final concentration in the assay). For pyrimidines, the preferred solvent is 1% ethanol/0.09% polypuronic acid F-127 (final concentration in the assay). For any other type of compounds, the preferred solvent is the solvent which permits the measurement of binding affinity of a GAL3 antagonist at the lowest concentration. Once a suitable solvent is ascertained for the binding assay of the human GAL3 receptor, the same solvent is used in assays to determine the binding affinity for instance, at the GAL1 receptor.
(§2) LM(tk−) cells were stably transfected with the human GAL1 or GAL3 receptor. CHO cells were stably transfected with the human GAL2 receptor.
(§3) cDNAs for the human and rat GAL1, and human and rat GAL3 receptors were transfected with a G-418 resistant gene into the mouse fibroblast LM(tk−) cell line by a calcium phosphate transfection method (Cullen, 1987). Stably transfected cells were selected with G-418. Human and rat GAL2 receptors were similarly transfected into CHO cells.
(§4) Membranes were harvested from stably transfected LM(tk−) cells. Adherent cells were washed twice in ice-cold phosphate buffered saline (138 mM NaCl, 8.1 mM Na2HPO4, […] KCl, 1.2 mM KH2PO4, 0.9 mM CaCl2, 0.5 mM MgCl2, pH 7.4) and lysed by sonication in ice-cold sonication buffer (20 mM Tris-HCl, 5 mM EDTA, pH 7.7). […] Protein concentration was measured by the Bradford method (Bradford, 1976) using Pio-Rad Reagent, with bovine serum albumin as a standard. […]
(§5) Binding data were analyzed using nonlinear regression and statistical techniques available in the GraphPAD Prism package (San, Diego, Calif.). […]

human GAL3 receptor = biological target: T2, human GAL3 receptor (Homo sapiens, UniProt O60755); assay: Radioligand binding at cloned human GAL3 receptor
T2 construct: expressed in transfected cells
T2 sequence (O60755 1-368): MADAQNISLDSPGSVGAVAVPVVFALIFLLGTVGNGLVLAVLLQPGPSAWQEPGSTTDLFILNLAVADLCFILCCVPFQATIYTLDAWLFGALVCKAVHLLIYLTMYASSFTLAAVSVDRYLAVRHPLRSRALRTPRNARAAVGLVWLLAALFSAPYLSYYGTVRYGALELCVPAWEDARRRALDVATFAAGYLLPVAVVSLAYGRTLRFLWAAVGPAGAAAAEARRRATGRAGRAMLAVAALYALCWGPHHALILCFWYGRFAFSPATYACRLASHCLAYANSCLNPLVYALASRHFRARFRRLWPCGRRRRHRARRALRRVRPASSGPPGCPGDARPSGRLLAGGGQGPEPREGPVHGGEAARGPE
Method: as §1, §2, §3, §4, §5

human GAL1 receptor = biological target: T3, human GAL1 receptor (Homo sapiens, UniProt P47211); assay: Radioligand binding at cloned human GAL1 receptor; details: read-out: Ki (nM) GalR1
T3 construct: expressed in transfected cells
T3 sequence (P47211 1-349): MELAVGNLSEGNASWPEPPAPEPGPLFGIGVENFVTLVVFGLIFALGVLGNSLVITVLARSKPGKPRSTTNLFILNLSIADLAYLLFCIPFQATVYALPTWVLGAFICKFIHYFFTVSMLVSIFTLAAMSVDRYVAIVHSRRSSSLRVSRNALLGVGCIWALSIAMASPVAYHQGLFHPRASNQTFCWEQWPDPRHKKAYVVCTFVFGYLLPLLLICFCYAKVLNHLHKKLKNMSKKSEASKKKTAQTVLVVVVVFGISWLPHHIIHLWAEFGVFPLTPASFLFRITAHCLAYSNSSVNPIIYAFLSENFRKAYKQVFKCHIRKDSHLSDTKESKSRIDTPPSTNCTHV
Method: as §1, §2, §3
Membranes were harvested from stably transfected LM(tk−) cells. Adherent cells were washed twice in ice-cold phosphate buffered saline (138 mM NaCl, 8.1 mM Na2HPO4, […] KCl, 1.2 mM KH2PO4, 0.9 mM CaCl2, 0.5 mM MgCl2, pH 7.4) and lysed by sonication in ice-cold sonication buffer (20 mM Tris-HCl, 5 mM EDTA, pH 7.7). Large particles and debris were cleared by low speed centrifugation (200×g, 5 min, 4° C.). Membranes were collected from the supernatant fraction by centrifugation (32,000×g, 18 min, 4° C.), washed with ice-cold hypotonic buffer, and collected again by centrifugation (32,000×g, 18 min, 4° C.). The final membrane pellet was resuspended by sonication into a small volume of ice-cold binding buffer (˜1 ml for every 5 plates: 10 mM NaCl, […] HEPES, 0.22 mM KH2PO4, 1.26 mM Cal2, 0.81 mM MgSO4, pH 7.4). Protein concentration was measured by the Bradford method (Bradford, 1976) using Pio-Rad Reagent, with bovine serum albumin as a standard. Membranes were held on ice for up to one hour and used fresh, or flash frozen and stored in liquid nitrogen. Membranes were prepared similarly from CHO cells. […]
as §5

## COc1ccc(N2CCN(c3nc(Nc4ccc(C)cc4)cc(N4CCCCC4)n3)CC2)c(OC)c1 [Example 28]
Human GAL2 receptor; Table 1, pyrimidines
  Ki: > 5000 nM
Human GAL3 receptor; Table 1, pyrimidines, read-out: Ki (nM) GalR3
  Ki: 270 nM
Human GAL1 receptor; Table 1, pyrimidines
  Ki: > 5000 nM

## CN(C)c1cc(N)nc(N(c2ccccc2)c2ccc(Cl)cc2)n1 [Example 58]
Human GAL2 receptor; Table 2, pyrimidines
  Ki: > 5000 nM
Human GAL3 receptor; Table 2, pyrimidines, read-out: Ki (nM) GalR3
  Ki: 783 nM
Human GAL1 receptor; Table 2, pyrimidines
  Ki: > 5000 nM

## CN(C)c1cc(NC2C3CC4CC(C3)CC2C4)nc(N2CCN(Cc3ccccc3)CC2)n1 (stereo not shown) [Example 137]
Human GAL3 receptor; Table 3a, pyrimidines, read-out: Ki (nM) Gal3
  Ki: 124 nM
